The text below walks through data of publication PMC5607274, “An iterative compound screening contest method for identifying target protein inhibitors using the tyrosine-protein kinase Yes” (Scientific Reports, 2017).

The structures appear in SMILES notation.

In assay [1] the target is T1, human recombinant Yes [a.a. 2–543 (end)] (Homo sapiens, UniProt P07947).
T1 construct: human recombinant Yes [a.a; 2–543 (end)]; purchased BPS Bioscience 40488
Briefly: ADP-Glo kinase assay, IC50 determination (dose-response curves) for Yes. The conditions noted are these: for dose-response relationship (DRR): IC50 determination; for "inhibition activity" in the whole range of concentrations: dose-response test, no DRR; for IC50: 5.5-nmol L−1 Yes, 0.013-mmol L−1 ATP, 0.2-mg mL−1 substrate (poly Glu-Tyr, 4:1). The format is biochemical. The procedure:
All inhibitory assays of the phosphorylation activity of Yes were performed in accordance with the Promega Technical Manual for the ADP-Glo™ Kinase Assay (Fitchburg, WI, USA. Catalog number: V9102). The human recombinant Yes [a.a. 2–543 (end)] was purchased from BPS Bioscience (catalog number: 40488). The details of the assay protocol and reagent information are given elsewhere.
The screening was conducted in three steps consisting of the first screening, the second screening, and the IC50 determination, as can be illustrated in Fig. 1b. First, we determined the inhibition rates of the 1,991 compounds. Each compound was placed in 4 wells of a 384-well plate. In total, 80 compounds were assayed on one plate and the other wells were used for positive and negative controls. The compounds were randomly placed on plates so that compounds proposed by one group were not placed on a plate together. A mean of four inhibition rates for each compound was compared to criteria for the first screening. […] Second, the inhibition rates of the screened compounds were determined on one plate using the same procedure of the first screening, where compounds were dissolved from fresh powder. […] Screened compounds were then evaluated for their IC50 values. […]
determine their IC50 values. Each dose-response curve was initially built using 8-point, 2-fold serial dilutions starting at 100 μmol L−1, with each concentration point in 4 […]
Assay was carried out under the same conditions as the primary screening, in summary, the final reagent concentrations were 5.5-nmol L−1 Ye s , 0.013-mmol L−1 ATP, and 0.2-mg mL−1 substrate (poly Glu-Tyr peptides, Glu:Tyr=4:1).
The curves were analyzed by GraphPad Prism (sigmoidal fit with variable slope). IC50 […]
standard deviations of the measurements.

For assay [2], the target named is T1, human recombinant Yes [a.a. 2–543 (end)]. Nature of the assay: ADP-Glo kinase assay, inhibition rates of Yes phosphorylation activity (first and second screening). The format is biochemical. The note with it: 10 μmol L−1 compound; for First screening IR (inhibition rate): mean of n = 4 wells; for Second screening IR (inhibition rate): dissolved from fresh powder, n = 4. The procedure, abridged: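 ADP-Glo luminescence measured inhibition of human recombinant Yes (a.a. 2–543) phosphorylation activity. In the first screen, each compound ran in 4 wells and inhibition rates were averaged. The second screen retested hits as compounds dissolved from fresh powder.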

T1 sequence (P07947 2-543): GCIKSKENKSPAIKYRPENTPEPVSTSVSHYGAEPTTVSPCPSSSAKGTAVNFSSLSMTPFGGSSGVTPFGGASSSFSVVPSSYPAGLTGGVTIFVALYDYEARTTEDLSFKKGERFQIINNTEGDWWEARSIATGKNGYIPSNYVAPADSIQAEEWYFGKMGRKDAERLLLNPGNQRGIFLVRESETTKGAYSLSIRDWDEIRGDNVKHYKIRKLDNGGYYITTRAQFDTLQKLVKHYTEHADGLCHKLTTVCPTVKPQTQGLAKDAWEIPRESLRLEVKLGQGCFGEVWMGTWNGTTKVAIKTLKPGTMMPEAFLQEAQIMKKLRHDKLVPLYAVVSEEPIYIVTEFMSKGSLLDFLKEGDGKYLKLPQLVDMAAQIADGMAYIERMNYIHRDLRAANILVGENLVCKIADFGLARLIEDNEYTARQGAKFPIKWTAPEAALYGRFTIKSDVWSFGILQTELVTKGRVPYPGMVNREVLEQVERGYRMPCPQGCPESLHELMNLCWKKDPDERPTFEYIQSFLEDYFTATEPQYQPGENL

For the compound `CC(=O)Nc1ccc(/C=N/Nc2ncnc3cc(-c4ccc(F)cc4)sc23)cc1` [Compound Z50080181], in assay [1], the “dose-response relationship (DRR)” value is given as “did not reveal a DRR” and the “"inhibition activity" in the whole range of concentrations” value (“"inhibition activity" in the whole range” below) is “around 50%”. Also, in assay [2], the “First screening IR (inhibition rate)” value stood at 51% and the “Second screening IR (inhibition rate)” value is reported as 47%.
Taken in the same sequence, the figures for `Fc1ccc(-c2cc3ncnc(N/N=C/c4ccncc4)c3s2)cc1` [Compound Z50080378] were “did not reveal a DRR”, “around 50%”, 67% and 55%.
In the case of `COc1ccc(Br)cc1/C=N/Nc1ncnc2nc[nH]c12` [Compound Z57745307], in assay [1], the “dose-response relationship (DRR)” value is reported as “did not reveal a DRR” and the “"inhibition activity" in the whole range” value is “around 50%”. Further, in assay [2], the “First screening IR (inhibition rate)” value is 62% and the “Second screening IR (inhibition rate)” value is 61%.
Turning to `O=C(CSc1ccc2ccccc2n1)Nc1nsc(-c2ccc(Cl)cc2)n1` [Compound Z275023406], in assay [1], the IC50 was 37.4 µM and the “dose-response relationship (DRR)” value was “good DRR”. Also, in assay [2], the “First screening IR (inhibition rate)” value is on record as 67% and the “Second screening IR (inhibition rate)” value worked out at 64%.
Consider `Cc1cc(N2CCc3c(ncn3C3CC3)C2)c2cc(OC(F)F)ccc2n1` [Compound Z1252403274], for which, in assay [1], the IC50 came out at 20 µM and the “dose-response relationship (DRR)” value is listed as “good DRR”. In assay [2], the “First screening IR (inhibition rate)” value came to 72% and the “Second screening IR (inhibition rate)” value was 50%.
With `CCCC(C)c1cc(NC(=O)c2ccc(N3CCNC3=O)cc2)n[nH]1` (stereo not drawn) [Compound Z1283491630], in assay [1], the “dose-response relationship (DRR)” value is “did not reveal a DRR” and the “"inhibition activity" in the whole range” value is “around 50%”. Also, in assay [2], the “First screening IR (inhibition rate)” value amounted to 29% and the “Second screening IR (inhibition rate)” value amounted to 49%.
